One assay deals with T1, Syk kinase (Homo sapiens, UniProt P43405).
T1 construct: purchased
In words: Syk kinase inhibition, Caliper LabChip off-chip mobility-shift kinase assay. Type of assay: biochemical. Particulars: Caliper LabChip assay; read-out: Syk Enzyme IC50. In a few lines:
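Purified Syk pre-incubated 15 min with compound in 100 mM HEPES pH 7.5, 1 mM DTT, 10 mM MgCl2 or MnCl2, 0.002% Brij-35, then 1.5 μM fluorescein peptide and ATP at apparent KM added; 1–1.5 h at room temperature, 4% DMSO, EDTA stop. Microfluidic mobility-shift product/substrate conversion gave % inhibition; IC50 from 12-point series (10–0.00003 μM) by 4-parameter fit.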
As a reminder, the IC50 is the midpoint of a concentration-inhibition curve. On to `CCn1ccc2cc(Nc3cc(C)ccn3)nc(N[C@@H]3CC[C@@H](O)C3)c2c1=O` [compound 1040], for which the IC50 was found to be 84 nM.
For the molecule `CC(C)(C)Nc1nc(Nc2cc(C(C)(C)C(N)=O)ccn2)cc2ccn(CCO)c(=O)c12` [compound 862], the IC50 turned out to be 579 nM.
Same read-out and setting: for `Cc1ccnc(Nc2cc3ccn(CCN4CCOCC4)c(=O)c3c(N[C@H]3CC[C@@H](O)CC3)n2)c1` [compound 993] the value was 67 nM; for `CCn1ccc2cc(Nc3cc(C)ccn3)nc(N[C@@H]3CCC[C@H]3O)c2c1=O` [compound 939], 1050 nM.
Still for that read-out and setting: to `CCC(C)(C)Nc1nc(-c2cnc(N)nc2)cc2cc[nH]c(=O)c12` [compound 893] belongs 43 nM.
For the molecule `CC(C)(C)Nc1nc(Nc2cnccn2)cc2ccn(CCCO)c(=O)c12` [compound 1034], the IC50 came to 12 nM.
With `CC(C)(C)Nc1nc(Nc2c[n+]([O-])ccn2)cc2ccn(C[C@@H](O)CO)c(=O)c12` [compound 675], the IC50 turned out to be 6 nM.
Same read-out and setting: to `CC1(Cn2ccc3cc(-c4cnc(N)nc4)nc(NC4CCC4)c3c2=O)COC1` [compound 771] belongs 75 nM; to `N#CCn1ccc2cc(-c3cnc(N)nc3)nc(NC3CCOCC3)c2c1=O` [compound 742], 34 nM.
Still for that read-out and setting: for `Cc1ccnc(Nc2cc3ccn(C(C)C)c(=O)c3c(NC(C)(C)CO)n2)c1` [compound 819] the value was 62 nM; for `COc1ccc(Nc2cc3ccn(CCO)c(=O)c3c(NC(C)(C)C)n2)nc1` [Compound No. 606, 8-(tert-butylamino)-2-(2-hydroxyethyl)-6-(5-methoxypyridin-2-ylamino)-2,7-naphthyridin-1(2H)-one], 793 nM.
On the same count and under the same terms, for `COCCNC(=O)c1ccnc(Nc2cc3ccn(CCO)c(=O)c3c(NC(C)(C)C)n2)c1` [compound 682] the value was 329 nM; for `Cc1ccnc(Nc2cc3ccn(C(C)C)c(=O)c3c(N[C@@H](C)CO)n2)c1` [compound 966], 29 nM.
On to `CC(C)(C)Nc1nc(Nc2cc(C3CCN(CCO)CC3)ncn2)cc2ccn(CCO)c(=O)c12` [compound 640], for which the IC50 stood at 116 nM.
The same measure, in the same setting: to `CC(C)(C)Nc1nc(Nc2cc(CNC3COC3)ccn2)cc2ccn(CCO)c(=O)c12` [compound 605] belongs 216 nM.
Same read-out and setting: for `CC(C)(C)Nc1nc(Nc2cc(C(C)(C)O)ncn2)cc2ccn(C[C@H](O)CO)c(=O)c12` [compound 740] the value was 54 nM.
Same read-out and setting: to `CC(C)(C)Nc1nc(Nc2cnccn2)cc2ccn(CCN3CCOCC3)c(=O)c12` [compound 998] belongs 205 nM.
For `CCn1ccc2cc(Nc3cc(C)ccn3)nc(NC3CCS(=O)(=O)C3)c2c1=O` (centres unmarked) [compound 970], the IC50 worked out at 75 nM.
Same read-out and setting: to `CCn1ccc2cc(Nc3cnccn3)nc(Nc3ccc(C(=O)N4CCC(O)C4)cc3)c2c1=O` (centres unmarked) [compound 833] belongs 263 nM; to `CC1(Nc2nc(Nc3cnccn3)cc3ccn(CCO)c(=O)c23)CCC1` [compound 896], 11 nM.
Regarding `CCn1ccc2cc(Nc3cnccn3)nc(NC3(CO)CC3)c2c1=O` [compound 797], the IC50 stood at 106 nM.
On the same count and under the same terms, to `CC(C)(C)Nc1nc(Nc2ccncn2)cc2ccn(CCO)c(=O)c12` [compound 736] belongs 90 nM.
For `COCCn1ccc2cc(-c3cnc(N)nc3)nc(NC(C)(C)C)c2c1=O` [compound 910], the IC50 was 30 nM.
Still for that read-out and setting: for `CCn1ccc2cc(Nc3cc(C)ccn3)nc(N[C@@H]3CC[C@H](CO)C3)c2c1=O` (stereo in doubt) [compound 789] the value was 72 nM; for `CCn1ccc2cc(Nc3cnccn3)nc(N[C@@H]3CC[C@H](CO)C3)c2c1=O` [compound 795], 51 nM; for `CC(C)(C)Nc1nc(Nc2cc(OC3CCNCC3)ncn2)cc2ccn(CCO)c(=O)c12` [compound 645, 8-(tert-butylamino)-2-(2-hydroxyethyl)-6-(6-(piperidin-4-yloxy)pyrimidin-4-ylamino)-2,7-naphthyridin-1(2H)-one], 5 nM.
On the same count and under the same terms, to `[2H]C([2H])([2H])n1ccc2cc(Nc3cc(Cl)ccn3)nc(NC[C@@H]3CCCO3)c2c1=O` [compound 1052] belongs 236 nM; to `CC(C)(C)Nc1nc(Nc2cnccn2)cc2ccn(C3CS(=O)(=O)C3)c(=O)c12` [compound 1015], 138 nM; to `CC(C)(C)Nc1nc(Nc2cc(C(C)(C)O)c(F)cn2)cc2ccn(CC(N)=O)c(=O)c12` [compound 877], 94 nM.
Still for that read-out and setting: for `CC1(O)CN(Cc2cc(Nc3cc4ccn(CCO)c(=O)c4c(NC(C)(C)C)n3)ncc2F)C1` [compound 610] the value was 370 nM.
As for `CCn1ccc2cc(Nc3cc(C)ccn3)nc(NCC(O)C(F)(F)F)c2c1=O` (centres unmarked) [compound 778], the IC50 was 413 nM.
On the same count and under the same terms, to `CC(C)(C)CNc1nc(-c2cnc(N)nc2)cc2ccn(CCO)c(=O)c12` [compound 911] belongs 94 nM.

Still in this assay, the particulars now being: read-out: Syk Enzyme IC50.
Take `O=c1[nH]ccc2cc(Nc3ccccn3)nc(N[C@@H]3CCC[C@H]3O)c12` (racemic) [compound 277]: the IC50 stood at 860 nM.
In the case of `CCN1CCN(CCc2ccc(Nc3nc(Nc4cc(C(F)(F)F)ccn4)cc4cc[nH]c(=O)c34)cc2)CC1` [compound 520], the IC50 was determined as 183 nM.
The same measure, in the same setting: to `Cc1ccnc(Nc2cc3ccn(C)c(=O)c3c(Nc3ccc(C(N)=O)cc3)n2)c1` [compound 483] belongs 62 nM; to `CC(C)Nc1nc(-c2cnc(N)nc2)cc2cc[nH]c(=O)c12` [compound 35], 86 nM; to `Cc1ccnc(Nc2cc3ccn(CCO)c(=O)c3c(NC(C)C)n2)c1` [compound 313], 85 nM.
On to `Cn1ccc2cc(Nc3cnccn3)nc(NC(C)(C)C)c2c1=O` [compound 463], for which the IC50 is 54 nM.
Consider `CCN1CCN(CCc2ccc(Nc3nc(-c4cnn(C)c4)cc4c(F)c[nH]c(=O)c34)cc2)CC1` [compound 442], for which the IC50 turned out to be 107 nM.
Turning to `Cn1ccc2cc(Nc3cnccn3)nc(Nc3ccc(S(C)(=O)=O)cc3)c2c1=O` [compound 336], the IC50 stood at 584 nM.
Still for that read-out and setting: to `Cc1ccc(Nc2cc3cc[nH]c(=O)c3c(Nc3ccc(N4CCO[C@H](C)C4)c(C)c3)n2)nc1` [compound 582] belongs 2220 nM.
For the molecule `CCn1ccc2cc(Nc3cc(C)ccn3)nc(NC[C@H]3CC[C@H](O)C3)c2c1=O` [compound 410], the IC50 is 120 nM.
Still for that read-out and setting: for `COc1cncc(-c2cc3cc[nH]c(=O)c3c(Nc3ccc(CCN4CCNC(=O)C4)cc3)n2)n1` [compound 155] the value was 55 nM; for `CCN1CCN(CCc2ccc(Nc3nc(Nc4ccc(F)cn4)cc4cc[nH]c(=O)c34)cc2)CC1` [compound 580], 163 nM.
On to `CCN1CCN(CCc2ccc(Nc3nc(Nc4ccc(Cl)cn4)cc4cc[nH]c(=O)c34)cc2)CC1` [compound 536], for which the IC50 is 398 nM.
Still for that read-out and setting: for `CCN1CCC[C@H]1CNc1nc(Nc2cc(C)ccn2)cc2cc[nH]c(=O)c12` [compound 590] the value was 3500 nM; for `COc1cncc(-c2cc3cc[nH]c(=O)c3c(Nc3ccc(C4CCN(CC5CC5(F)F)CC4)c(C)c3)n2)n1` (centres unmarked) [compound 78], 129 nM; for `Cn1ccc2cc(Nc3ccc(C#N)cn3)nc(N)c2c1=O` [compound 573], 3870 nM.
As for `Cc1cc(Nc2nc(-c3ccc(N(C)C)nc3)cc3cc[nH]c(=O)c23)ccc1C1CCN(C2CC2)CC1` [compound 218], the IC50 worked out at 350 nM.
On the same count and under the same terms, to `CCN1CCN(CCc2ccc(Nc3nc(Nc4cc(C)ccn4)cc4cc[nH]c(=O)c34)cc2)CC1` [compound 585] belongs 81 nM; to `[2H]C([2H])([2H])n1ccc2cc(Nc3cc(Cl)ccn3)nc(N[C@@H](C)CO)c2c1=O` [compound 403], 60.4 nM; to `Cn1ccc2cc(Nc3cnccn3)nc(N)c2c1=O` [compound 479], 599 nM.
On the same count and under the same terms, to `COc1cncc(-c2cc3cc[nH]c(=O)c3c(Nc3ccc(C4CCN(CC(O)CO)CC4)cc3)n2)n1` (centres unmarked) [compound 127] belongs 7 nM.
Same read-out and setting: to `CCOC(=O)CCc1cc2cc[nH]c(=O)c2c(Nc2ccc(N3CCOCC3)cc2)n1` [compound 245] belongs 295 nM; to `Cc1ccnc(Nc2cc3ccn(CCN4CCOCC4)c(=O)c3c(NC(C)C)n2)c1` [compound 315], 381 nM.
As to `Cc1cc(Nc2cc3ccn(CCO)c(=O)c3c(NC(C)(C)CO)n2)ncc1F` [compound 498], the IC50 was 76 nM.
Consider `Cc1ccnc(Nc2cc3ccn(C)c(=O)c3c(Nc3ccc(C4CCN(C)CC4)cc3)n2)c1` [compound 309], for which the IC50 came to 16 nM.
`Cn1ccc2cc(Nc3cnccn3)nc(N[C@H]3CCOC3)c2c1=O` [compound 329]: the IC50 was found to be 63 nM.
The same measure, in the same setting: for `CCN1CCN(c2n[nH]c3cc(Nc4nc(-c5ccc(C)nc5)cc5cc[nH]c(=O)c45)ccc23)CC1` [compound 200] the value was 56 nM.
In the case of `COc1cncc(-c2cc3cc[nH]c(=O)c3c(Nc3ccc(C4CCN(CCC#N)C4)cc3)n2)n1` (centres unmarked) [compound 65], the IC50 was 30 nM.
In the case of `COc1ccc(-c2cc3cc[nH]c(=O)c3c(Nc3ccc(C4CCN(C5CC5)CC4)c(C)c3)n2)cc1OC` [compound 213], the IC50 was determined as 990 nM.
Same read-out and setting: for `CCn1ccc2cc(Nc3cnccn3)nc(NC[C@H]3CC[C@@](C)(O)C3)c2c1=O` [compound 417] the value was 95.6 nM; for `Cc1ccnc(Nc2cc3ccn(CCO)c(=O)c3c(N[C@@H](C)CO)n2)c1` [compound 367], 13 nM; for `O=c1[nH]ccc2cc(Nc3ccccn3)nc(Nc3ccc(N4CCOCC4)cc3)c12` [compound 509], 143 nM.
Same read-out and setting: for `O=C1CCC(c2ccc(Nc3nc(-c4cncnc4)cc4cc[nH]c(=O)c34)cc2)CC1` [compound 91] the value was 400 nM; for `CCC(C)(C)Nc1nc(Nc2cc(C)ccn2)cc2cc[nH]c(=O)c12` [compound 528], 374 nM; for `COCCN1CCC(c2ccc(Nc3nc(-c4cncnc4)cc4cc[nH]c(=O)c34)cc2F)CC1` [compound 198], 31 nM.
On the same count and under the same terms, to `Cc1ccnc(Nc2cc3ccn(C)c(=O)c3c(NC3CCC3)n2)c1` [compound 489] belongs 124 nM.

The values are drawn from US20110053897A1 (IRM LLC, priority 2009, published 2011).
